# Assay results reported in ChEMBL document CHEMBL1155961, “Novel 4-aryl-pyrido[1,2-c]pyrimidines with dual SSRI and 5-HT1A activity: part 2” (Eur J Med Chem, 2009).
# Activity calls are given as the source filed them. The rule behind the calls is not given here.
# Assays:
# [1] = target: T1, 5-hydroxytryptamine receptor 1A (Rattus norvegicus, UniProt P19327); assay: Displacement of [3H]8-OH-DPAT from 5-HT1A receptor in rat hippocampus; format: tissue-based
# T1 sequence (P19327 whole entry): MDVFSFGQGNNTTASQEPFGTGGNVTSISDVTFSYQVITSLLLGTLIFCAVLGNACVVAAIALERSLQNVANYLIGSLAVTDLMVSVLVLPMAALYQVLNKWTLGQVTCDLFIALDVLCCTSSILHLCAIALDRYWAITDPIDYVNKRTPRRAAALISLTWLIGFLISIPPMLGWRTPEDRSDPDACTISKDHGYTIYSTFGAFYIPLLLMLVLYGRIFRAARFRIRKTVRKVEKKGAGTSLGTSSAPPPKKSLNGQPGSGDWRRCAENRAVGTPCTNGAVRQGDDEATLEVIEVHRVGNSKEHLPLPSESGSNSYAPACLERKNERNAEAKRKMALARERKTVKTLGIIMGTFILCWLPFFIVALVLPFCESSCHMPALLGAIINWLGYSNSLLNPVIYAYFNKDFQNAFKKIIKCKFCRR
# [2] = target: Sodium-dependent serotonin transporter (Rattus norvegicus, UniProt P31652); assay: Displacement of [3H]citalopram from SERT in rat cerebral cortex by liquid scintillation counting; format: tissue-based
# Chain of Sodium-dependent serotonin transporter (P31652 whole entry): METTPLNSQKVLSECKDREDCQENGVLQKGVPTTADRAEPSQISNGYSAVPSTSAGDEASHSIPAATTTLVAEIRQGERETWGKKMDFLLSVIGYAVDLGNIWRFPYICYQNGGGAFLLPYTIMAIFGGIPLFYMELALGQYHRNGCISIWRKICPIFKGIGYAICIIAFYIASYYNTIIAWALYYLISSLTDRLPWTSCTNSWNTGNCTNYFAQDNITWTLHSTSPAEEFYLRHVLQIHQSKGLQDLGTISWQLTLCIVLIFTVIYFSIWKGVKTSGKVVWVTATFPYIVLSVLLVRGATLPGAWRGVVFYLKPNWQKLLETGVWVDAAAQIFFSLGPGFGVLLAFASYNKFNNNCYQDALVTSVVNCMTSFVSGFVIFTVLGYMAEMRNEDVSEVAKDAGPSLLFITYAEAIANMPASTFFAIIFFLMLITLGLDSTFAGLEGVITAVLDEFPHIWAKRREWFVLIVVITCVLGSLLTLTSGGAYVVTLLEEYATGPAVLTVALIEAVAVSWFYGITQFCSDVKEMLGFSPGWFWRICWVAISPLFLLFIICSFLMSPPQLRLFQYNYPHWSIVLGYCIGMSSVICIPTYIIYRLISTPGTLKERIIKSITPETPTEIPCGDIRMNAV
# Mus musculus [3] = assay: Effect on hypothermia in Swiss albino mouse assessed as change in rectal body temperature at 20 mg/kg, ip after 120 mins by inducible hypothermia test; format: functional, organism-based; design: dose 20 mg/kg
# Mus musculus [4] = assay: Effect on hypothermia in Swiss albino mouse assessed as change in rectal body temperature at 20 mg/kg, ip after 90 mins by inducible hypothermia test; format: functional, organism-based; design: dose 20 mg/kg
# Mus musculus [5] = assay: Effect on hypothermia in Swiss albino mouse assessed as change in rectal body temperature at 20 mg/kg, ip after 30 mins by inducible hypothermia test; format: functional, organism-based; design: dose 20 mg/kg
# Mus musculus [6] = assay: Effect on hypothermia in Swiss albino mouse assessed as change in rectal body temperature at 20 mg/kg, ip after 60 mins by inducible hypothermia test; format: functional, organism-based; design: dose 20 mg/kg
# Mus musculus [7] = assay: Effect on hypothermia in Swiss albino mouse assessed as change in rectal body temperature at 10 mg/kg, ip after 120 mins by inducible hypothermia test; format: functional, organism-based; design: dose 10 mg/kg
# Mus musculus [8] = assay: Effect on hypothermia in Swiss albino mouse assessed as change in rectal body temperature at 10 mg/kg, ip after 90 mins by inducible hypothermia test; format: functional, organism-based; design: dose 10 mg/kg
# Mus musculus [9] = assay: Effect on hypothermia in Swiss albino mouse assessed as change in rectal body temperature at 10 mg/kg, ip after 60 mins by inducible hypothermia test; format: functional, organism-based; design: dose 10 mg/kg
# Mus musculus [10] = assay: Effect on hypothermia in Swiss albino mouse assessed as change in rectal body temperature at 10 mg/kg, ip after 30 mins by inducible hypothermia test; format: functional, organism-based; design: dose 10 mg/kg
# Mus musculus [11] = assay: Effect on hypothermia in Swiss albino mouse assessed as change in rectal body temperature at 5 mg/kg, ip after 120 mins by inducible hypothermia test; format: functional, organism-based; design: dose 5 mg/kg
# Mus musculus [12] = assay: Effect on hypothermia in Swiss albino mouse assessed as change in rectal body temperature at 5 mg/kg, ip after 90 mins by inducible hypothermia test; format: functional, organism-based; design: dose 5 mg/kg
# Mus musculus [13] = assay: Effect on hypothermia in Swiss albino mouse assessed as change in rectal body temperature at 5 mg/kg, ip after 60 mins by inducible hypothermia test; format: functional, organism-based; design: dose 5 mg/kg
# Mus musculus [14] = assay: Effect on hypothermia in Swiss albino mouse assessed as change in rectal body temperature at 5 mg/kg, ip after 30 mins by inducible hypothermia test; format: functional, organism-based; design: dose 5 mg/kg
# Mus musculus [15] = assay: Antidepressant activity in Swiss albino mouse assessed as reduction of immobility time at 10 mg/kg, ip administered 30 mins before test measured 6 mins test session after 2 mins habituation period by forced swimming test; format: functional
# Mus musculus [16] = assay: Antidepressant activity in Swiss albino mouse assessed as reduction of immobility time at 20 mg/kg, ip administered 30 mins before test measured 6 mins test session after 2 mins habituation period by forced swimming test; format: functional
# Mus musculus [17] = assay: Effect on hypothermia in Swiss albino mouse assessed as change in rectal body temperature at 20 mg/kg, ip dosed 15 mins after 0.1 mg/kg, sc WAY 100635 challenge measured after 60 mins by inducible hypothermia test; format: functional, organism-based
# Mus musculus [18] = assay: Effect on hypothermia in Swiss albino mouse assessed as change in rectal body temperature at 20 mg/kg, ip dosed 15 mins after 0.1 mg/kg, sc WAY 100635 challenge measured after 30 mins by inducible hypothermia test; format: functional, organism-based
# Mus musculus [19] = species: Mus musculus; details: Swiss albino, 2.5 mg/kg
# Description: Effect on hypothermia in Swiss albino mouse assessed as change in rectal body temperature at 2.5 mg/kg, ip after 120 mins by inducible hypothermia test
# Mus musculus [20] = species: Mus musculus; details: Swiss albino, 2.5 mg/kg; remark: listed apart in the source
# Description: Effect on hypothermia in Swiss albino mouse assessed as change in rectal body temperature at 2.5 mg/kg, ip after 60 mins by inducible hypothermia test
# Mus musculus [21] = species: Mus musculus; details: Swiss albino, 2.5 mg/kg; remark: listed apart in the source
# Description: Effect on hypothermia in Swiss albino mouse assessed as change in rectal body temperature at 2.5 mg/kg, ip after 90 mins by inducible hypothermia test
# Mus musculus [22] = species: Mus musculus; details: Swiss albino, 2.5 mg/kg; remark: listed apart in the source
# Description: Effect on hypothermia in Swiss albino mouse assessed as change in rectal body temperature at 2.5 mg/kg, ip after 30 mins by inducible hypothermia test
# Mus musculus [23] = species: Mus musculus; details: Swiss albino, 1.25 mg/kg
# Description: Effect on hypothermia in Swiss albino mouse assessed as change in rectal body temperature at 1.25 mg/kg, ip after 120 mins by inducible hypothermia test
# Mus musculus [24] = species: Mus musculus; details: Swiss albino, 1.25 mg/kg; remark: listed apart in the source
# Description: Effect on hypothermia in Swiss albino mouse assessed as change in rectal body temperature at 1.25 mg/kg, ip after 90 mins by inducible hypothermia test
# Mus musculus [25] = species: Mus musculus; details: Swiss albino, 1.25 mg/kg; remark: listed apart in the source
# Description: Effect on hypothermia in Swiss albino mouse assessed as change in rectal body temperature at 1.25 mg/kg, ip after 60 mins by inducible hypothermia test
# Mus musculus [26] = species: Mus musculus; details: Swiss albino, 1.25 mg/kg; remark: listed apart in the source
# Description: Effect on hypothermia in Swiss albino mouse assessed as change in rectal body temperature at 1.25 mg/kg, ip after 30 mins by inducible hypothermia test
# Mus musculus [27] = species: Mus musculus; details: Swiss albino, 5 mg/kg
# Description: Effect on hypothermia in Swiss albino mouse assessed as change in rectal body temperature at 5 mg/kg, ip dosed 15 mins after 0.1 mg/kg, sc WAY 100635 challenge measured after 60 mins by inducible hypothermia test
# Mus musculus [28] = species: Mus musculus; details: Swiss albino, 5 mg/kg; remark: listed apart in the source
# Description: Effect on hypothermia in Swiss albino mouse assessed as change in rectal body temperature at 5 mg/kg, ip dosed 15 mins after 0.1 mg/kg, sc WAY 100635 challenge measured after 30 mins by inducible hypothermia test
# Mus musculus [29] = assay: Effect on spontaneous locomotor activity in Swiss albino mouse assessed as number of light-beam crossings in actiometers pretreated for 30 mins at 10 mg/kg, ip measured during 6 mins post drug dose; format: functional; details: route intraperitoneal
# Mus musculus [30] = assay: Effect on spontaneous locomotor activity in Swiss albino mouse assessed as number of light-beam crossings in actiometers pretreated for 30 mins at 10 mg/kg, ip measured during 30 mins post drug dose; format: functional; details: route intraperitoneal
# Mus musculus [31] = assay: Antidepressant activity in Swiss albino mouse assessed as reduction of immobility time at 5 mg/kg, ip administered 30 mins before test measured 6 mins test session after 2 mins habituation period by forced swimming test; format: functional, organism-based; design: dose 5 mg/kg
# Mus musculus [32] = assay: Effect on hypothermia in Swiss albino mouse assessed as change in rectal body temperature at 10 mg/kg, ip dosed 15 mins after 0.1 mg/kg, sc WAY 100635 challenge measured after 60 mins by inducible hypothermia test; format: functional, organism-based
# Mus musculus [33] = assay: Effect on hypothermia in Swiss albino mouse assessed as change in rectal body temperature at 10 mg/kg, ip dosed 15 mins after 0.1 mg/kg, sc WAY 100635 challenge measured after 30 mins by inducible hypothermia test; format: functional, organism-based
# Mus musculus [34] = species: Mus musculus; details: Swiss albino, 20 mg/kg
# Mus musculus [35] = species: Mus musculus; details: Swiss albino, 20 mg/kg; remark: listed apart in the source
# Mus musculus [36] = species: Mus musculus; details: Swiss albino, 20 mg/kg; remark: listed apart in the source
# Mus musculus [37] = species: Mus musculus; details: Swiss albino, 20 mg/kg; remark: listed apart in the source
smiles,measurement,setting,value
COc1ccccc1-c1c2n(c(=O)n(CCCCN3CCC(c4c(C)[nH]c5ccccc45)CC3)c1=O)CCCC2,Ki,[1],1600 nM
same,Ki,[2],719 nM
Cc1ccccc1-c1c2n(c(=O)n(CCCCN3CCC(c4c[nH]c5ccccc45)CC3)c1=O)CCCC2,Ki,[1],53.8 nM
same,Ki,[2],124 nM
Cc1ccc(-c2c3n(c(=O)n(CCCCN4CCC(c5c(C)[nH]c6ccccc56)CC4)c2=O)CCCC3)cc1,Ki,[1],1500 nM
same,Ki,[2],115 nM
Cc1[nH]c2ccccc2c1C1CCN(CCCCn2c(=O)c(-c3ccc(Cl)cc3)c3n(c2=O)CCCC3)CC1,Ki,[1],1500 nM
same,Ki,[2],460 nM
Cc1[nH]c2ccccc2c1C1CCN(CCCCn2c(=O)c(-c3ccccc3Cl)c3n(c2=O)CCCC3)CC1,Ki,[1],2100 nM
same,Ki,[2],480 nM
COc1ccc2[nH]cc(C3CCN(CCCCn4c(=O)c(-c5ccccc5C)c5n(c4=O)CCCC5)CC3)c2c1,Ki,[1],51.7 nM
same,Ki,[2],124 nM
COc1ccc2[nH]cc(C3CCN(CCCCn4c(=O)c(-c5ccc(C)cc5)c5n(c4=O)CCCC5)CC3)c2c1,deltaT,Mus musculus [3],-0.7 °C
same,deltaT,Mus musculus [4],-0.8 °C
same,deltaT,Mus musculus [5],-1.3 °C
same,deltaT,Mus musculus [6],-1.3 °C
same,deltaT,Mus musculus [7],-0.1 °C
same,deltaT,Mus musculus [8],-0.2 °C
same,deltaT,Mus musculus [9],-0.4 °C
same,deltaT,Mus musculus [10],-0.6 °C
same,deltaT,Mus musculus [11],-0.1 °C
same,deltaT,Mus musculus [12],-0.1 °C
same,deltaT,Mus musculus [13],-0.2 °C
same,deltaT,Mus musculus [14],-0.3 °C
same,Ki,[1],23 nM
same,Ki,[2],136 nM
same,Activity,Mus musculus [15],inactive
same,Activity,Mus musculus [16],inactive
same,deltaT,Mus musculus [17],-0.4 °C
same,deltaT,Mus musculus [18],-0.4 °C
O=c1c(-c2ccccc2Cl)c2n(c(=O)n1CCCCN1CCC(c3c[nH]c4ccccc34)CC1)CCCC2,Ki,[1],36.2 nM
same,Ki,[2],101 nM
Cc1[nH]c2ccccc2c1C1CCN(CCCCn2c(=O)c(-c3ccccc3)c3n(c2=O)CCCC3)CC1,Ki,[1],1400 nM
same,Ki,[2],274 nM
Cc1[nH]c2ccccc2c1C1CCN(CCCCn2c(=O)c(-c3ccc(F)cc3)c3n(c2=O)CCCC3)CC1,Ki,[1],3200 nM
same,Ki,[2],116 nM
COc1ccc(-c2c3n(c(=O)n(CCCCN4CCC(c5c[nH]c6ccc(OC)cc56)CC4)c2=O)CCCC3)cc1,deltaT,Mus musculus [11],-0.1 °C
same,deltaT,Mus musculus [12],-0.3 °C
same,deltaT,Mus musculus [13],-0.5 °C
same,deltaT,Mus musculus [14],-1.1 °C
same,Ki,[1],10.4 nM
same,Ki,[2],83.5 nM
same,deltaT,Mus musculus [19],-0.5 °C
same,deltaT,Mus musculus [20],-0.6 °C
same,deltaT,Mus musculus [21],-0.6 °C
same,deltaT,Mus musculus [22],-0.8 °C
same,deltaT,Mus musculus [23],-0.2 °C
same,deltaT,Mus musculus [24],-0.4 °C
same,deltaT,Mus musculus [25],-0.4 °C
same,deltaT,Mus musculus [26],-0.3 °C
same,deltaT,Mus musculus [27],-0.9 °C
same,deltaT,Mus musculus [28],-1.2 °C
COc1ccc2[nH]cc(C3CCN(CCCCn4c(=O)c(-c5ccc(Cl)cc5)c5n(c4=O)CCCC5)CC3)c2c1,Ki,[1],14.6 nM
same,Ki,[2],222 nM
Cc1ccc(-c2c3n(c(=O)n(CCCCN4CCC(c5c[nH]c6ccccc56)CC4)c2=O)CCCC3)cc1,deltaT,Mus musculus [7],-0.2 °C
same,deltaT,Mus musculus [8],-0.3 °C
same,deltaT,Mus musculus [9],-0.5 °C
same,deltaT,Mus musculus [10],-1 °C
same,deltaT,Mus musculus [11],-0.2 °C
same,deltaT,Mus musculus [12],-0.3 °C
same,deltaT,Mus musculus [13],-0.6 °C
same,deltaT,Mus musculus [14],-0.6 °C
same,Ki,[1],48.3 nM
same,Ki,[2],76.7 nM
same,Activity,Mus musculus [29],114
same,Activity,Mus musculus [30],221
same,Activity,Mus musculus [15]; route intraperitoneal,34%
same,Activity,Mus musculus [31],inactive
same,deltaT,Mus musculus [32],-0.6 °C
same,deltaT,Mus musculus [33],-0.6 °C
COc1ccc(-c2c3n(c(=O)n(CCCCN4CCC(c5c[nH]c6ccccc56)CC4)c2=O)CCCC3)cc1,deltaT,Mus musculus [3],-0.3 °C
same,deltaT,Mus musculus [4],-0.4 °C
same,deltaT,Mus musculus [5],-0.6 °C
same,deltaT,Mus musculus [6],-0.7 °C
same,deltaT,Mus musculus [7],-0.3 °C
same,deltaT,Mus musculus [8],-0.4 °C
same,deltaT,Mus musculus [9],-0.5 °C
same,deltaT,Mus musculus [10],-0.7 °C
same,deltaT,Mus musculus [11],-0.1 °C
same,deltaT,Mus musculus [12],-0.2 °C
same,deltaT,Mus musculus [13],-0.2 °C
same,deltaT,Mus musculus [14],-0.5 °C
same,Ki,[1],20.5 nM
same,Ki,[2],71.6 nM
same,deltaT,Mus musculus [34],-0.2 °C
same,deltaT,Mus musculus [35],-0.3 °C
same,deltaT,Mus musculus [36],-0.5 °C
same,deltaT,Mus musculus [37],0.6 °C
O=c1c(-c2ccccc2F)c2n(c(=O)n1CCCCN1CCC(c3c[nH]c4ccccc34)CC1)CCCC2,deltaT,Mus musculus [7],-0.5 °C
same,deltaT,Mus musculus [8],-0.8 °C
same,deltaT,Mus musculus [9],-1 °C
same,deltaT,Mus musculus [10],-1.2 °C
same,deltaT,Mus musculus [11],-0.1 °C
same,deltaT,Mus musculus [12],-0.2 °C
same,deltaT,Mus musculus [13],-0.2 °C
same,deltaT,Mus musculus [14],-0.3 °C
same,Ki,[1],27.8 nM
same,Ki,[2],102 nM
same,Activity,Mus musculus [29],217
same,Activity,Mus musculus [30],333
same,Activity,Mus musculus [15]; route intraperitoneal,27%
same,Activity,Mus musculus [31],inactive
same,deltaT,Mus musculus [32],-0.4 °C
same,deltaT,Mus musculus [33],-0.6 °C
Cc1[nH]c2ccccc2c1C1CCN(CCCCn2c(=O)c(-c3ccccc3F)c3n(c2=O)CCCC3)CC1,Ki,[1],2200 nM
same,Ki,[2],944 nM
COc1ccc2[nH]cc(C3CCN(CCCCn4c(=O)c(-c5ccc(F)cc5)c5n(c4=O)CCCC5)CC3)c2c1,Ki,[1],13.9 nM
same,Ki,[2],76.1 nM
COc1ccc(-c2c3n(c(=O)n(CCCCN4CCC(c5c(C)[nH]c6ccccc56)CC4)c2=O)CCCC3)cc1,Ki,[2],203 nM
